Results published in patent publication US9334288B2, “Selective β-glucuronidase inhibitors as a treatment for side effects of camptothecin antineoplastic agents” (The University of North Carolina at Chapel Hill, priority 2009, dated 2016).

Experiments:
diarrhea = conditions: rats, literature (Fittkau et al. 2004); cited from earlier work
E. coli β-glucuronidase = E. coli β-glucuronidase (Escherichia coli, UniProt P05804); type: biochemical; set-up: The full-length E. coli β-glucuronidase gene was obtained from bacterial genomic DNA; 6xHis (N); made in house; host or cells: E. coli BL21-DE3; conditions: in vitro, using PNPG
Text: (§1) Thus, two other β-glucuronidase activity assays were employed to examine the potency of inhibitors both in vitro and in cell-based studies. An absorbance assay based on the conversion of p-nitrophenyl glucuronide (PNPG) to p-nitrophenol (PNP) (Szasz (1967) Clin Chem 13:752-759), which absorbs at 410 nm, was employed as the primary in vitro assay (FIG. 9). A secondary assay involving the conversion of phenolphthalein glucuronide (PheG) to phenolphthalein (Phe), which absorbs at 540 nm, was also employed (FIG. 9). Id.
In vitro assays were conducted at 50 μL total volume in 96-well, clear bottom assay plates (Costar). Substrates consisted of PNPG or PheG (FIG. 9) and were acquired from Sigma. The presence of the hydrolysis product of each, PNP or Phe, was measured by absorbance at 410 nm or 540 nm, respectively. […] Absorbance was measured using a PHERAstar Plus microplate reader (BMG Labtech).
In vitro assays were conducted at 50 μL total volume in 96-well, clear bottom assay plates (Costar). […] The presence of the hydrolysis product of each, p-nitrophenol (PNP) and phenolphthalein (Phe), was measured by absorbance at 410 nm or 540 nm, respectively. […] Absorbance was measured using a PHERAstar Plus microplate reader (BMG Labtech). Data acquired was analyzed using Microsoft Excel and Sigmaplot 11.0.

[1] = molecular target: β-glucuronidase activity in living E. coli cells (Escherichia coli, UniProt P05804); type: cell-based; set-up: The full-length E. coli β-glucuronidase gene was obtained from bacterial genomic DNA; expressed in transfected cells; host or cells: E. coli HB101 transformed with pET-28a-GUS
Text: as §1
HB101 E. coli cells were grown to an OD600 of 0.6 in LB medium. These cells were then used for an in vivo assay. Reaction time and temperature were the same as previously described (see In Vitro β-Glucuronidase Assays). […] Absorbance was measured at the appropriate wavelength, depending on the substrate. […]
HB101 E. coli cells, transformed with the pET-28a vector containing the β-Glucuronidase gene, were grown to an OD600 of 0.6 in LB medium. […] Absorbance was measured at the appropriate wavelength, either 410 nm or 540 nm. Cell survivability in the presence of the nine inhibitors was assessed by plating a 10^−5 dilution of 200 μl of saturated cells after incubation with 100 μM of each inhibitor for 6 hours. […] Plated cells were allowed to incubate at 37° C. overnight, and colonies were counted to quantify the viability of the cells.

Chain of β-glucuronidase activity in living E. coli cells (P05804 whole entry): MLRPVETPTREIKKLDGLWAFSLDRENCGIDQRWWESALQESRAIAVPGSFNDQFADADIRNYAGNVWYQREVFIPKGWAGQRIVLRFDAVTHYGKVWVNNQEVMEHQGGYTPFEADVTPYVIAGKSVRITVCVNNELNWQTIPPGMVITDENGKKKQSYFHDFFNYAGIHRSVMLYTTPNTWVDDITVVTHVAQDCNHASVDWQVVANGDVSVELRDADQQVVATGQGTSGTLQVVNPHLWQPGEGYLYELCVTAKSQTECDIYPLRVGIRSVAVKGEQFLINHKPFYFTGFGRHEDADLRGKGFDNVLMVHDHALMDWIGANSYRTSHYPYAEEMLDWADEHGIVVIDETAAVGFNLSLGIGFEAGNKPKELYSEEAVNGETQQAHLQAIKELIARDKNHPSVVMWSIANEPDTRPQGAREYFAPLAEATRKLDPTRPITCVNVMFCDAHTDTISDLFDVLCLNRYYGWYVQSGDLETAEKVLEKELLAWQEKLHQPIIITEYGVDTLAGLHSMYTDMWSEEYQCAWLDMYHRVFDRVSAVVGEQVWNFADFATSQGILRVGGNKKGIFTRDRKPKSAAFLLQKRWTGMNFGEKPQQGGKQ
Chain of E. coli β-glucuronidase (P05804 whole entry): as above

Compound | reversal of CPT-11 diarrhea / epithelial cell death (diarrhea) | IC50 (E. coli β-glucuronidase) [µM] | efficacy in living cells [1]
O=C1OC(C(O)C(=O)O)C(O)C1O (stereo not drawn) [saccharic acid 1,4-lactone] | partially reversed |  | 
O=C(O)[C@H]1NC(=O)[C@H](O)[C@@H](O)[C@@H]1O [GDL, glucaro-δ-lactam, reference compound] |  | 45 ± 3.1 | ineffective
